Results on 1 molecule are retold here after US7737127B2, “2-propynyl adenosine analogs having A2A agonist activity and compositions thereof” (University of Virginia Patent Foundation, priority 2001, dated 2010).

Assay [1] concerns the target T1, human A1 AR (Homo sapiens, UniProt P30542).
T1 sequence (P30542 1-326): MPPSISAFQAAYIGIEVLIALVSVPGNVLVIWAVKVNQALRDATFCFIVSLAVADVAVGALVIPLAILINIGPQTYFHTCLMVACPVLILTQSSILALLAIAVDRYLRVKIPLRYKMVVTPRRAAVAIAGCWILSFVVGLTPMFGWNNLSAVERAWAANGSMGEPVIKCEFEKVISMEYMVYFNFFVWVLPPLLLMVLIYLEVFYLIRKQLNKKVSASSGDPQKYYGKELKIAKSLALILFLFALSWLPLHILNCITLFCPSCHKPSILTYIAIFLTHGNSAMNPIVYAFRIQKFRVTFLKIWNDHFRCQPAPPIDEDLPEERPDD
The assay is described as follows: Radioligand competition binding (125I-ABA) to human A1 AR in CHO K1 cell membranes.

In assay [2] the target is T2, A3 AR (Homo sapiens, UniProt P0DMS8).
T2 sequence (P0DMS8 1-318): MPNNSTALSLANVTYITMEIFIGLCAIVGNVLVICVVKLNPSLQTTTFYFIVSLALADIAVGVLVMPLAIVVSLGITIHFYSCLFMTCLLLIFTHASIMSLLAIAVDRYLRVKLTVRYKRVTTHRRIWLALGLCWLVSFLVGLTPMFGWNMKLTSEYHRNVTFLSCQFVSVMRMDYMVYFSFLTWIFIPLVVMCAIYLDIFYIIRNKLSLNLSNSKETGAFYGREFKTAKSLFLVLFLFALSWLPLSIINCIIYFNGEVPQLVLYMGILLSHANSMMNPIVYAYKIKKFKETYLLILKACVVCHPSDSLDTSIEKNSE
The assay is described as follows: Radioligand competition binding (125I-ABA) to human A3 AR in HEK 293 cell membranes.
Procedure: Sf9 cells were cultured in Grace's medium supplemented with 10% fetal bovine serum, 2.5 μg/ml amphotericin B and 50 μg/ml gentamycin in an atmosphere of 50% N2/50% O2. […] Infected cells were harvested 3 days post-infection and washed twice in insect PBS (PBS pH 6.3). Cells were then resuspended in lysis buffer (20 mM HEPES pH 7.5, 150 mM NaCl, 3 mM MgCl2, 1 mM β-mercaptoethanol (BME), 5 μg/mL leupeptin, 5 μg/mL pepstatin A, 1 μg/mL aprotinin, and 0.1 mM PMSF) and snap frozen for storage at −80° C. Cells were thawed on ice, brought to 30 mL total volume in lysis buffer, and burst by N2 cavitation (600 psi for 20 minutes). A low-speed centrifugation was performed to remove any unlysed cells (1000×g for 10 minutes), followed by a high-speed centrifugation (17,000×g for 30 minutes). The pellet from the final centrifugation was homogenized in buffer containing 20 mM HEPES pH 8, 100 mM NaCl, 1% glycerol, 2 μg/mL leupeptin, 2 μg/mL pepstatin A, 2 μg/mL Aprotinin, 0.1 mM PMSF, and 10 μM GDP using a small glass homogenizer followed by passage through a 26 gauge needle. Membranes were aliquoted, snap frozen in liquid N2, and stored at −80° C.
Binding experiments were performed in triplicate with 5 μg (A2A) or 25 μg (A1 and A3) membrane protein in a total volume of 0.1 mL HE buffer (20 mM HEPES and 1 mM EDTA) with 1 U/mL adenosine deaminase and 5 mM MgCl2 with or without 50 μM GTPγS. Membranes were incubated with radioligands at room temperature for three hours (for agonists) or two hours (for antagonists) in Millipore Multiscreene® 96-well GF/C filter plates and assays were terminated by rapid filtration on a cell harvester (Brandel, Gaithersburg, Md.) followed by 4×150 μl washes over 30 seconds with ice cold 10 mM Tris-HCl, pH 7.4, 10 mM MgCl2.

Assay [3] addresses recombinant human A2A receptors (Homo sapiens, UniProt P29274). The assay is described as follows: Radioligand competition binding to recombinant human A2A receptors in Sf9 cell membranes. To be noted: A2A ± SEM, Ki from competition binding, Sf9 cell membranes.
In assay [4] the test system is liver ischemia/reperfusion injury. The assay can be described thus: Liver ischemia/reperfusion injury, serum GPT. It is filed as in vivo, Mice. The settings on record: administered 6 hours prior to I/R injury; serum GPT 24 hours later; vs. a control compound and ATL146e; FIG. 17. On the procedure:
Mice were anesthetized by intraperitoneal injection of ketamine 100 mg/kg and xylazine 10 mg/kg. Glycopyrrolate (Robinul-V™) 0.05 mg/kg was delivered subcutaneously before the operation. The ambient temperature was controlled in the range of 24° C. to 26° C. Mice were placed on a 37° C. heat pad with their core temperature monitored by a TH-8 Thermalert™ Monitoring Thermometer (Physitemp) and maintained at 36-37° C. by a TCAT-1A Temperature Control and Alarm Unit (Physitemp) during the entire procedure. After midline laparotomy, a microaneurysm clip was applied to the hepatic triad above the bifurcation to clamp the flow of the hepatic artery, portal vein, and bile duct. […]
Serum GPT (ALT) levels were measured using a Transaminase kit (505, Sigma). Briefly, 20 μL serum sample was mixed with 100 (L pre-heated Alanine-α-KG substrate and incubated in a 37° C. water bath for 30 minutes. Then we added 100 (L Sigma Color Reagent to the reaction and left it at room temperature for 20 minutes. We stopped the reaction with 1.0 ml 0.4N sodium hydroxide solution. Absorbance of each sample at 505 nm was measured and converted into SF unit/ml.
The test compounds were administered 6 hours prior to I/R injury. Tissue protection is measured by amount of Serum GPT present in the in a serum sample 24 hours later, with smaller GPT concentrations indicating better liver function.

The subject of assay [5] is human neutrophils. The assay is described as follows: Human neutrophil oxidative activity, luminol-enhanced chemiluminescence. It is filed as cell-based. An outline of the steps: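 Purified human neutrophils (5–10×10^5/ml) pre-incubated 30 min at 37 °C with the A2A agonist, ± rolipram and ± TNF-α (1 U/ml), then stimulated with fMLP (1 μM final). Peak luminol-enhanced chemiluminescence expressed as percent of no-agonist control. EC50 from three donors.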

recombinant human A2A receptors, sequence (P29274 whole entry, the tested form may be a part): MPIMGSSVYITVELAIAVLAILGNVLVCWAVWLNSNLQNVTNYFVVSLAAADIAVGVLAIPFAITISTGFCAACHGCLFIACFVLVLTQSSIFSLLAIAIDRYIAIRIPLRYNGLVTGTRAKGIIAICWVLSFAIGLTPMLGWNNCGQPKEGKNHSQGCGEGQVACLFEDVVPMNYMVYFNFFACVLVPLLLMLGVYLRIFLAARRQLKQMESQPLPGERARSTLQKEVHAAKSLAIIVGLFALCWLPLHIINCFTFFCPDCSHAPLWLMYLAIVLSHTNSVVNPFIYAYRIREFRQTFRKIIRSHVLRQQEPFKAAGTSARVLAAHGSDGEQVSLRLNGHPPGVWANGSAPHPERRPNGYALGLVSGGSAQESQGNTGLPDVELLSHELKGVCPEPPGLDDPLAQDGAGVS

For the molecule `CCNC(=O)[C@H]1O[C@@H](n2cnc3c(N)nc(C#C[C@]4(O)CCC[C@@H](C)C4)nc32)C(O)C1O` (stereo in doubt) [JR-3223, 5-[6-Amino-2-(1-hydroxy-3-methylcyclohexylethynyl)purin-9-yl]-3,4-dihydroxytetrahydrofuran-2-carboxylic acid ethylamide], the Ki in assay [1] (A1 ± SEM, Ki from competition binding, 125I-ABA, CHO K1 cell membranes) stood at 4.8 ± 0.3 nM; in assay [2] (A3 ± SEM, Ki from competition binding, 125I-ABA, HEK 293 cell membranes), 0.7 ± 0.02 nM; in assay [3] it was 0.92 ± 0.2 nM. Moreover, in assay [1] (selectivity ratio A1 over A2A), the A1/A2A is on record as 5.2. Moreover, the A3/A2A in assay [2] (selectivity ratio A3 over A2A) was found to be 0.8. In addition, the “duration of action for liver tissue protection (Serum GPT)” value in assay [4] is recorded as “longer duration of action”. For the same molecule, the 50% effective concentration (EC50) in assay [5] (Homo sapiens, Neutrophil, human neutrophil experiment w/o Rolipram, read-out: PMN oxid (-log EC50) (converted)) is 0.339 nM. For the same molecule, in assay [5] (human neutrophil experiment w/Rolipram), the “PMN oxid + roli (-log EC50)” value turned out to be 10.15.
